For this assay, the system named is 8×TBD luciferase reporter in HEK293T cells. The assay can be described thus: YAP Reporter Assay (firefly luciferase). It is filed as cell-based. The note with it: Homo sapiens, HEK-293T; HEK293T cells stably transfected with 8×TBD luciferase reporter and pRLTK; 24-hr incubation; starting from 3 μM, 1:3 dilution, 10 points. Here is the method:
HEK293T cells stably transfected with 8×TBD luciferase reporter and pRLTK in 384-well plates were treated with the test compounds, starting from 3 μM (final concentration in assay plate), 1:3 dilution, and 10 points in quadruplicates. Post 24-hr incubation with compounds at 37° C. and 5% CO2, cells were lysed and 8×TBD-driven firefly luciferase and control TK-driven renilla luciferase activities were measured using Promega Dual-Luciferase Reporter Assay System.
Reagents: The reagents used for this study are: DMEM: Invitrogen #11960077, Dual-Glo Luciferase Assay System: Promega-E2980, Puromycin Dihydrochloride: Invitrogen-A1113803, 384-well plate: PerkinElmer-6007480, L-GLUTAMINE: Invitrogen-25030164, Hygromycin B: Invitrogen-10687010, and Penicillin-Streptomycin: Merk-TMS-AB2-C
Media: The media used for this assay were: Culture Medium: DMEM+1 ug/mL puromycin+200 ug/mL hygromycin (with 10% FBS+1 mM L-glutamine); and Assay Medium: DMEM (with 10% FBS+1 mM L-glutamine+1×P/S).
Cell Plating: The appropriate media was warmed at 37° C. by water bath: Culture Medium, Assay Medium, 1*D-PBS, 0.05% trypsin-EDTA. The cells were trypsinized after removing all media, then washed with 1*sterile D-PBS and then with 2 ml 0.05% trypsin-EDTA. The cells were then incubated at RT for one minute. Then 10 ml/75 cm2 flask Assay Medium was added to each flask. Using a 10 ml pipette, the cells were then gently resuspended in the media, until the clumps completely disappeared. The cells were then transferred into 50 ml centrifuge tubes and were centrifuged at 800 rpm for 5 mins. The medium was removed and the cells were resuspended with Assay Medium. An aliquot of cells was used to count the cell density (cells/ml). The cell suspension was then diluted with Assay Medium to a concentration of 6×10^4 cells/ml. 50 ul cells suspension was then plated to 384-well plate (PerkinElmer-6007480), 3×10^3 cells/well and the cells were incubated in an incubator at 37° C., 5% CO2.
Compound Treatment: In the afternoon (incubation of the plate with 3-4 hrs), the test compounds were added by Echo, starting from 3 uM (final concentration in the assay plate), 1:3 dilution, 10 points, quadruplicates. The plate was placed at 37° C., 5% CO2 incubator for 24 hrs.
Detection: The Dual-Glo Luciferase Reagent was prepared by transferring the contents of one bottle of Dual-Glo Luciferase Buffer to one bottle of Dual-Glo Luciferase Substrate to create the Dual-G Luciferase Reagent. Mixing was performed by inversion until the substrate was thoroughly dissolved. After mixing, the reagent was aliquoted into 15 ml tubes. In the afternoon (24 hrs post compound treatment), the DMEM+ medium in the 384 well plates were aspirated by Microplate Washer.
Measuring firefly luciferase activity: 20 ul Dual-Glo Luciferase Reagent was added to the 384-well plates. The plates were protected from light to prevent interference with the assay. The plates were shaken for […] followed centrifuging plates at 1000 rpm for 30 seconds. After waiting at least 10 minutes, the firefly luminescence was measured by Envision.
Measuring renilla luciferase activity: 20 ul Stop-Glo Reagent was added to the 384-well plates. The plates were shaken for […] and then centrifuged at 1000 rpm for 30 seconds. After waiting at least 10 minutes, the renilla luminescence was measured by Envision.
Compound IC50 and maximum inhibition on the firefly luciferase and renilla luciferase activities were reported separately.
(Reporter assays use an easily measured gene product as a stand-in for the process of interest.)
As a reminder, the IC50 is the concentration that gives 50% inhibition. A lower IC50 goes with inhibition by little substance. For `NCC1CCN(C(=O)c2ccc3c(Oc4ccc(C(F)(F)F)cc4)cccc3c2)C1` (stereo not shown) [Compound 8, (3-(Aminomethyl)pyrrolidin-1-yl)(5-(4-(trifluoromethyl)phenoxy)naphthalen-2-yl)methanone], the IC50 is ≤ 0.1 µM.

Consider `O=C(c1ccc2c(Oc3ccc(C(F)(F)F)cc3)cccc2c1)N1CC2(C1)CN(c1ccccn1)C2` [Compound 41, (6-(Pyridin-2-yl)-2,6-diazaspiro[3.3]heptan-2-yl)(5-(4-(trifluoromethyl)phenoxy)naphthalen-2-yl)methanone], for which the IC50 was 1 to 3 µM.

In the case of `O=C(c1ccc2c(Oc3ccc(C(F)(F)F)cc3)cccc2c1)N1CC2(CNC2)C1` [Compound 11, (2,6-Diazaspiro[3.3]heptan-2-yl)(5-(4-(trifluoromethyl)phenoxy)naphthalen-2-yl)methanone], the IC50 was in the range of 0.1 to 1 µM.

Turning to `O=C(c1ccc2c(Oc3ccc(C(F)(F)F)cc3)cccc2c1)N1CC(CNCCO)C1` [Compound 37, (3-(((2-Hydroxyethyl)amino)methyl)azetidin-1-yl)(5-(4-(trifluoromethyl)phenoxy)naphthalen-2-yl)methanone], the IC50 was ≤ 0.1 µM.

`NC1CCN(C(=O)c2ccc3c(Oc4ccc(C(F)(F)F)cc4)cccc3c2)C1` (stereo not shown) [Compound 3, (3-Aminopyrrolidin-1-yl)(5-(4-(trifluoromethyl)phenoxy)naphthalen-2-yl)methanone] registered an IC50 of 0.1 to 1 µM.

Take `O=C(c1ccc2c(Oc3ccc(C(F)(F)F)cc3)cccc2c1)N1CC(CO)C1` [Compound 13, (3-(Hydroxymethyl)azetidin-1-yl)(5-(4-(trifluoromethyl)phenoxy)naphthalen-2-yl)methanone]: the IC50 was ≤ 0.1 µM.

On to `NC1CN(C(=O)c2ccc3c(Oc4ccc(C(F)(F)F)cc4)cccc3c2)C1` [Compound 1A, (3-aminoazetidin-1-yl)(5-(4-(trifluoromethyl)phenoxy)naphthalen-2-yl)methanone], for which the IC50 is ≤ 0.1 µM.

With `CN(C)C(=O)c1ccc2c(Oc3ccc(C(F)(F)F)cc3)cccc2c1` [Compound 42, N,N-dimethyl-5-(4-(trifluoromethyl)phenoxy)naphthalene-2-carboxamide], the IC50 was in the range of 0.1 to 1 µM.

Consider `CN(C)CC1CN(C(=O)c2ccc3c(Oc4ccc(C(F)(F)F)cc4)cccc3c2)C1` [Compound 14, (3-((Dimethylamino)methyl)azetidin-1-yl)(5-(4-(trifluoromethyl)phenoxy)naphthalen-2-yl)methanone], for which the 50% inhibitory concentration (IC50) lay within 0.1 to 1 µM.

With `CN(C)C1CN(C(=O)c2ccc3c(Oc4ccc(C(F)(F)F)cc4)cccc3c2)C1` [Compound 12, (3-(Dimethylamino)azetidin-1-yl)(5-(4-(trifluoromethyl)phenoxy)naphthalen-2-yl)methanone], the IC50 was in the range of 1 to 3 µM.

`CNC1CN(C(=O)c2ccc3c(Oc4ccc(C(F)(F)F)cc4)cccc3c2)C1` [Compound 26, (3-(Methylamino)azetidin-1-yl)(5-(4-(trifluoromethyl)phenoxy)naphthalen-2-yl)methanone]: the IC50 was in the range of 0.1 to 1 µM.

As for `CN1CC2(C1)CN(C(=O)c1ccc3c(Oc4ccc(C(F)(F)F)cc4)cccc3c1)C2` [Compound 18, (6-Methyl-2,6-diazaspiro[3.3]heptan-2-yl)(5-(4-(trifluoromethyl)phenoxy)naphthalen-2-yl)methanone], the IC50 is 0.1 to 1 µM.

`O=C(c1ccc2c(Oc3ccc(C(F)(F)F)cc3)cccc2c1)N1CCNCC1` [Compound 2, Piperazin-1-yl(5-(4-(trifluoromethyl)phenoxy)naphthalen-2-yl)methanone] returned a 50% inhibitory concentration (IC50) of 1 to 3 µM.

The molecule `CC(C)N1CC2(CN(C(=O)c3ccc4c(Oc5ccc(C(F)(F)F)cc5)cccc4c3)C2)C1` [Compound 20, (6-Isopropyl-2,6-diazaspiro[3.3]heptan-2-yl)(5-(4-(trifluoromethyl)phenoxy)naphthalen-2-yl)methanone] came in with an IC50 of 0.1 to 1 µM.

As to `CC(=O)NC1CN(C(=O)c2ccc3c(Oc4ccc(C(F)(F)F)cc4)cccc3c2)C1` [Compound 1, N-(1-(5-(4-(Trifluoromethyl)phenoxy)-2-naphthoyl)azetidin-3-yl)acetamide], the IC50 is ≤ 0.1 µM.

Turning to `COCCN1CC2(C1)CN(C(=O)c1ccc3c(Oc4ccc(C(F)(F)F)cc4)cccc3c1)C2` [Compound 22, (6-(2-Methoxyethyl)-2,6-diazaspiro[3.3]heptan-2-yl)(5-(4-(trifluoromethyl)phenoxy)naphthalen-2-yl)methanone], the IC50 fell in the range of 0.1 to 1 µM.

`CC(=O)NCC1CN(C(=O)c2ccc3c(Oc4ccc(C(F)(F)F)cc4)cccc3c2)C1` [Compound 16, N-((1-(5-(4-(trifluoromethyl)phenoxy)-2-naphthoyl)azetidin-3-yl)methyl)acetamide]: the IC50 was ≤ 0.1 µM.

`O=C(c1ccc2c(Oc3ccc(C(F)(F)F)cc3)cccc2c1)N1CC2(CN(CCO)C2)C1` [Compound 21, (6-(2-Hydroxyethyl)-2,6-diazaspiro[3.3]heptan-2-yl)(5-(4-(trifluoromethyl)phenoxy)naphthalen-2-yl)methanone]: the IC50 lay in the range of 0.1 to 1 µM.

Consider `CNCC1CN(C(=O)c2ccc3c(Oc4ccc(C(F)(F)F)cc4)cccc3c2)C1` [Compound 25, (3-((Methylamino)methyl)azetidin-1-yl)(5-(4-(trifluoromethyl)phenoxy)naphthalen-2-yl)methanone], for which the IC50 fell in the range of 0.1 to 1 µM.

`COCCNCC1CN(C(=O)c2ccc3c(Oc4ccc(C(F)(F)F)cc4)cccc3c2)C1` [Compound 35, (3-(((2-Methoxyethyl)amino)methyl)azetidin-1-yl)(5-(4-(trifluoromethyl)phenoxy)naphthalen-2-yl)methanone] yielded an IC50 of 0.1 to 1 µM.

In the case of `CS(=O)(=O)NCC1CN(C(=O)c2ccc3c(Oc4ccc(C(F)(F)F)cc4)cccc3c2)C1` [Compound 17, N-((1-(5-(4-(trifluoromethyl)phenoxy)-2-naphthoyl)azetidin-3-yl)methyl)methanesulfonamide], the IC50 is ≤ 0.1 µM.

Take `NCC1CCCN(C(=O)c2ccc3c(Oc4ccc(C(F)(F)F)cc4)cccc3c2)C1` (stereo not shown) [Compound 9, (3-(Aminomethyl)piperidin-1-yl)(5-(4-(trifluoromethyl)phenoxy)naphthalen-2-yl)methanone]: the IC50 lay within 0.1 to 1 µM.

In turn, `O=C(c1ccc2c(Oc3ccc(C(F)(F)F)cc3)cccc2c1)N1CC(Nc2ccccn2)C1` [Compound 39, (3-(Pyridin-2-ylamino)azetidin-1-yl)(5-(4-(trifluoromethyl)phenoxy)naphthalen-2-yl)methanone] registered an IC50 of 0.1 to 1 µM.

For `O=C(c1ccc2c(Oc3ccc(C(F)(F)F)cc3)cccc2c1)N1CC(O)C1` [Compound 15, (3-Hydroxyazetidin-1-yl)(5-(4-(trifluoromethyl)phenoxy)naphthalen-2-yl)methanone], the IC50 was ≤ 0.1 µM.

As for `CN(C#N)C(=O)c1ccc2c(Oc3ccc(C(F)(F)F)cc3)cccc2c1` [Compound 43, N-cyano-N-methyl-5-(4-(trifluoromethyl)phenoxy)-2-naphthamide], the IC50 is ≤ 0.1 µM.

For the molecule `O=C(c1ccc2c(Oc3ccc(C(F)(F)F)cc3)cccc2c1)N1CC(NCCO)C1` [Compound 30, (3-((2-Hydroxyethyl)amino)azetidin-1-yl)(5-(4-(trifluoromethyl)phenoxy)naphthalen-2-yl)methanone], the IC50 is ≤ 0.1 µM.

For the molecule `CC(C)NC1CN(C(=O)c2ccc3c(Oc4ccc(C(F)(F)F)cc4)cccc3c2)C1` [Compound 28, (3-(Isopropylamino)azetidin-1-yl)(5-(4-(trifluoromethyl)phenoxy)naphthalen-2-yl)methanone], the IC50 is ≤ 0.1 µM.

`COCCNC1CN(C(=O)c2ccc3c(Oc4ccc(C(F)(F)F)cc4)cccc3c2)C1` [Compound 29, (3-((2-Methoxyethyl)amino)azetidin-1-yl)(5-(4-(trifluoromethyl)phenoxy)naphthalen-2-yl)methanone] yielded an IC50 of 0.1 to 1 µM.
